The structures appear in SMILES notation.

The target in the assay is T1, Recombinant human BRD4 containing dual bromodomains (BRD4-BD12 (1-477)) (Homo sapiens, UniProt O60885).
T1 construct: Recombinant human BRD4 containing dual bromodomains (BRD4-BD12 (1-477)); made in house; host or cells: E. coli BL21-CodonPlus (DE3), modified pET vector
The assay is described as follows: BRD4 Alphascreen binding assay. A digest of the protocol: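 His-tagged human BRD4 tandem bromodomains (1-477, E. coli) incubated 1 h at room temperature with biotinylated tetra-acetylated H4 (1-21) peptide and compound in HEPES pH 7.5 buffer with 2 mM DTT. AlphaScreen signal read 30 min after adding beads (7.5 μg/ml); IC50 from four-parameter fit after normalization to controls.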
As for `Cc1noc(C)c1-c1cnc2c(c1)c(-c1cnn(C(C)(C)C(=O)O)c1)cn2C(c1ccccn1)C1CCCC1` (stereo not shown) [P-0035, 2-(4-(1-(cyclopentyl(pyridin-2-yl)methyl)-5-(3,5-dimethylisoxazol-4-yl)-1H-pyrrolo[2,3-b]pyridin-3-yl)-1H-pyrazol-1-yl)-2-methylpropanoic acid], the half-maximal inhibitory concentration (IC50) fell in the range of 1 to 8 µM.
`Cc1noc(C)c1-c1cnc2c(c1)c(-c1cnn(CC(=O)O)c1)cn2C(c1ccccn1)C1CCCC1` (stereo not shown) [P-0036, 2-(4-(1-(cyclopentyl(pyridin-2-yl)methyl)-5-(3,5-dimethylisoxazol-4-yl)-1H-pyrrolo[2,3-b]pyridin-3-yl)-1H-pyrazol-1-yl)acetic acid]: the IC50 is 1 to 8 µM.
`Cc1noc(C)c1-c1cnc2c(c1)c(-c1cnn(CC(C)(C)O)c1)cn2C(c1ccccn1)C1CCCC1` (stereo not shown) [P-0037, 1-(4-(1-(cyclopentyl(pyridin-2-yl)methyl)-5-(3,5-dimethylisoxazol-4-yl)-1H-pyrrolo[2,3-b]pyridin-3-yl)-1H-pyrazol-1-yl)-2-methylpropan-2-ol]: the IC50 is 1 to 8 µM.
Regarding `Cc1noc(C)c1-c1cnc2c(c1)c(-c1ccc(C(=O)O)c(Cl)c1)cn2C(c1ccccn1)C1CCCC1` (stereo not shown) [P-0038, 2-chloro-4-(1-(cyclopentyl(pyridin-2-yl)methyl)-5-(3,5-dimethylisoxazol-4-yl)-1H-pyrrolo[2,3-b]pyridin-3-yl)benzoic acid], the IC50 fell in the range of 1 to 8 µM.
Regarding `COC(=O)c1cc(-c2cn(C(c3ccccn3)C3CCCC3)c3ncc(-c4c(C)noc4C)cc23)ccn1` (stereo not shown) [P-0040, methyl 4-(1-(cyclopentyl(pyridin-2-yl)methyl)-5-(3,5-dimethylisoxazol-4-yl)-1H-pyrrolo[2,3-b]pyridin-3-yl)picolinate], the half-inhibitory concentration (IC50) fell in the range of 1 to 8 µM.
Under `Cc1noc(C)c1-c1cnc2c(c1)c(-c1ccnc(C(=O)O)c1)cn2C(C1CC1)C1CC1` [P-0041, 4-(1-(dicyclopropylmethyl)-5-(3,5-dimethylisoxazol-4-yl)-1H-pyrrolo[2,3-b]pyridin-3-yl)picolinic acid] stands 0.0001 to 1 µM.
On to `Cc1noc(C)c1-c1cnc2c(c1)c(-c1ccnc(C(=O)O)c1)cn2Cc1ccccc1` [P-0042, 4-(1-benzyl-5-(3,5-dimethylisoxazol-4-yl)-1H-pyrrolo[2,3-b]pyridin-3-yl)picolinic acid], for which the IC50 lay in the range of 0.0001 to 1 µM.
Then `Cc1noc(C)c1-c1cnc2c(c1)c(-c1ccnc(C(=O)O)c1)cn2C(c1ccccn1)C1CCC1` (stereo not shown) [P-0043, 4-(1-(cyclobutyl(pyridin-2-yl)methyl)-5-(3,5-dimethylisoxazol-4-yl)-1H-pyrrolo[2,3-b]pyridin-3-yl)picolinic acid], with 1 to 8 µM; and `Cc1noc(C)c1-c1cnc2c(c1)c(-c1ccnc(C(=O)O)c1)cn2Cc1ccccn1` [P-0044, 4-(5-(3,5-dimethylisoxazol-4-yl)-1-(pyridin-2-ylmethyl)-1H-pyrrolo[2,3-b]pyridin-3-yl)picolinic acid], with 0.0001 to 1 µM.
Take `Cc1noc(C)c1-c1cnc2c(c1)c(-c1ccnc(C(=O)O)c1)cn2CC1CC1` [P-0045, 4-(1-(cyclopropylmethyl)-5-(3,5-dimethylisoxazol-4-yl)-1H-pyrrolo[2,3-b]pyridin-3-yl)picolinic acid]: the IC50 was 0.0001 to 1 µM.
Under `COC(=O)c1cc(-c2cn(C(c3ccccn3)C3CCC3)c3ncc(-c4c(C)noc4C)cc23)ccn1` (stereo not shown) [P-0046, methyl 4-(1-(cyclobutyl(pyridin-2-yl)methyl)-5-(3,5-dimethylisoxazol-4-yl)-1H-pyrrolo[2,3-b]pyridin-3-yl)picolinate] stands 8 to 1000 µM.
With `COc1cc(C(=O)O)ccc1-c1cn([C@@H](C)c2ccccn2)c2ncc(-c3c(C)noc3C)cc12` [P-0047, (S)-4-(5-(3,5-dimethylisoxazol-4-yl)-1-(1-(pyridin-2-yl)ethyl)-1H-pyrrolo[2,3-b]pyridin-3-yl)-3-methoxybenzoic acid], the 50% inhibitory concentration (IC50) lay within 1 to 8 µM.
Then `Cc1noc(C)c1-c1cnc2c(c1)c(-c1cccc(C(=O)O)c1)cn2Cc1ccccc1` [P-0048, 3-(1-benzyl-5-(3,5-dimethylisoxazol-4-yl)-1H-pyrrolo[2,3-b]pyridin-3-yl)benzoic acid], with 1 to 8 µM.

One may read the IC50 as the point on the concentration scale where inhibition reaches its midpoint.

Source of the values: patent publication US11446287B2, “Compounds and methods for EP300 or CBP modulation and indications therefor” (Opna Immuno-Oncology SA, priority 2019, dated 2022).
